Paper PMC12197642 (Viruses, 2025)

Legend:
[1] = tested on: FMDV serotype O strain O/China; type: cell-based, foot-and-mouth disease virus (FMDV)
[2] = in vitro; conditions: hamster
[3] = tested on: FMDV serotype O strain O/China; assay: microbe, parasite or virus in culture; type: cell-based, foot-and-mouth disease virus (FMDV)
[4] = target: FMDV 2C helicase (Foot-and-mouth disease virus serotype O, UniProt P03305); type: biochemical
[5] = tested on: FMDV serotype O strain O/China; type: cell-based, foot-and-mouth disease virus (FMDV); remark: listed apart in the source
[6] = tested on: picornaviral 2C; conditions: cited from earlier work
[7] = Foot-and-mouth disease virus, BHK-21, read-out: reduction of viral plaque formation (inhibitory efficacy)

FMDV 2C helicase, sequence (P03305 1108-1425 limits assumed): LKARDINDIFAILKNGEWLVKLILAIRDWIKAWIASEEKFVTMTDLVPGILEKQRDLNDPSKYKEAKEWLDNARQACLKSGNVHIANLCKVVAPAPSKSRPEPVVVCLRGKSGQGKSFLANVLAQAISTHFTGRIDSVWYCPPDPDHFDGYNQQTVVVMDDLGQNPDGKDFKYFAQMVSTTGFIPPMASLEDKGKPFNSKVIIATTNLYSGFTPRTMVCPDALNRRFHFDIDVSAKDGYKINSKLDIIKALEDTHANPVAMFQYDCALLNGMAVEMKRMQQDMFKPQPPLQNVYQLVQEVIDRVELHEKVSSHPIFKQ

SMILES	viability at 500 µM [2]	inhibition type [4]	CC50 [2]	also measured
Cc1cccc[n+]1[O-] [Compound C1, 2-methylpyridine 1-oxide]	> 50%	mixed inhibition		antiviral activity by indirect immunofluorescence [1]: superior viral replication suppression; concentration achieving effective FMDV suppression [3]: 400 µM; reduction of viral plaque formation [3]: 90.2%; inhibition at 200 µM [3, 7]: 97.3%; inhibition at 400 µM [3, 7]: 99.8%
Sc1cnn[nH]1 [Compound C2, 1H-1,2,3-triazole-5-thiolate]	> 50%	competitive inhibition	1330 µM	
Oc1ccccn1 [Compound C3, pyridin-2-ol]	> 50%	competitive inhibition	852 µM	
COc1ccc2c(c1)cc1n2CCN2CCCN=C12 [Compound C4, 11-methoxy-3,4,6,7-tetrahydro-2H-pyrimido[2′,1′:3,4]pyrazino[1,2-a]indole]		mixed inhibition	284 µM	antiviral activity by indirect immunofluorescence [1]: superior viral replication suppression; suppression of FMDV RNA levels [5]: significantly outperformed 2-MPO; concentration achieving effective FMDV suppression [3]: 160 µM; inhibition rate (plaque assay) [3]: 99.7%
COc1cccc2c1NC(=O)C(Cl)(Cl)C2=O [Compound C5, 3,3-dichloro-8-methoxy-2,4(1H,3H)-quinolinedione]		noncompetitive inhibition	127 µM	
O=C1C=CC2(C=C1)OC(=O)c1ccccc1O2 [Compound C6, Spiro (4H-[1,3]benzodioxine-2,4′-[2,5]cyclohexadiene)-1′,4-dione]		noncompetitive inhibition	3 µM	
Cl.N=C(N)N [Guanidine hydrochloride]				effect on helicase and ATPase activities [6]: suppresses helicase and ATPase activities
